ChEMBL document CHEMBL2057121, “Selective non-lipid modulator of LPA5 activity in human platelets” (Bioorg Med Chem Lett, 2012)

Columns and labels:
[1] = target: Lysophosphatidic acid receptor 5 (Homo sapiens, UniProt Q9H1C0); assay: Antagonist activity at human recombinant LPA5 receptor expressed in rat RH7777 cells assessed as inhibition of hexadecyl-LPA-induced effect; format: functional, cell-based
[2] = target: Lysophosphatidic acid receptor 1/3 (Homo sapiens, UniProt Q9UBY5+Q92633); assay: Antagonist activity at LPA1/3 receptor in human isolated platelets assessed as inhibition of collagen-induced platelet aggregation after 3 mins; format: functional

Sequence of Lysophosphatidic acid receptor 5 (Q9H1C0 whole entry): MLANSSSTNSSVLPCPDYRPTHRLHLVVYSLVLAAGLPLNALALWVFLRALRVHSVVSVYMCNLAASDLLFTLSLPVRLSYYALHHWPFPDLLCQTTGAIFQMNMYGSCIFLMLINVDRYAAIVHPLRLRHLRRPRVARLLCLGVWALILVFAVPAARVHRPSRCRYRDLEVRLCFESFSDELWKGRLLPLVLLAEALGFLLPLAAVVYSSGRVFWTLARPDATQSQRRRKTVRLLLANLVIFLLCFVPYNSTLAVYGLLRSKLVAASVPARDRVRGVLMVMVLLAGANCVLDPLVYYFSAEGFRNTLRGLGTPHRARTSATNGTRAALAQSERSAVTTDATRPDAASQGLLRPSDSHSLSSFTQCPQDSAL

COc1cccc(-n2nc(C(=O)O)cc2-c2ccc(C3CCCCC3)c(Cl)c2)c1
IC50 [1]: 800 nM | IC50 [2]: > 10000 nM
